Assay [1] relates to aorta rings of Cftr+/+ mice. Description: Vasorelaxation of aorta rings contracted by 80 mM K+, Cftr+/+ mice. The assay is classed as cell-based, mouse. An excerpt: (§1) CFTR is detected at the level of its messenger RNA and at the level of protein in the smooth muscles. As negative control the inventors used musculus skeleti of rat at the level of which neither the messenger nor the protein are present. CFTR is detectable in the smooth muscle by immunoprecipitation and phosphorylation in vitro by the protein kinase A. The pharmacology of CFTR has been studied using iodide efflux in muscle cell freshly dissociated from rat aorta. […] Its inhibition profile is similar to that of epithelial CFTR (sensitivity to glibenclamide and DPC but not to Calixarene). […] Moreover, a greater contraction is observed in the KO animals in response to the constricting agents.
(§2) a, graphs showing the vasorelaxation induced by the VIP neuropeptide (Vasoactive Intestinal Polypeptide) of aortas without endothelium of Cftr^+/+ (left) and Cftr^−/− (right) mice. The aorta rings are reversibly contracted by a hyperpotassium solution (solution of 80 mM K^+) then the effect of 300 nM VIP is measured. The absence of endothelium is verified by the addition of acetylcholine (ACh, 10^−5 M).
(§3) This effect is absent in Cftr^−/− mice (n=6). Average±SEM*P<0.05, ** P<0.01, *** P<0.001.

In assay [2] the test system is human mammary arteries. Description: Vasorelaxant effect on human mammary arteries. It counts as cell-based. An excerpt:
The pharmacological effects of the compounds of the benzo[c]quinolizinium family, CFTR activators: 6-hydroxy-10-chlorobenzo[c]quinolizinium chloride (reference name: MPB-07) and 5-butyl-6-hydroxy-10-chlorobenzo[c]quinolizinium chloride (reference name: MPB-91), were studied on aorta rings isolated from rats and from human mammary arteries.

Assay [3] concerns aorta rings isolated from rats. As to the kind of experiment: Isolated organ technique: relaxation of rat aorta rings pre-contracted in hyperpotassium solution (80 mM KCl). The assay is classed as cell-based. Conditions: for EC50: Rattus norvegicus. As to the method:
The experiments are carried out on the thoracic aorta of male rats of Wistar strain weighing 200 to 250 g, 7 to 8 weeks of age. The rat is stunned then placed in the supine position. After thoracotomy, the segment of the aorta comprised between the diaphragm and the right aortic arch is excised. The portion of aorta is immediately placed in a buffered physiological solution of modified Krebs type. The aorta is sectioned into 5 mm rings.
For certain preparations, the endothelium is removed mechanically using a needle surrounded by a wire which is turned in the aorta ring.
The aorta rings, after dissection, are suspended between two hooks one of which is fixed and the other is mobile. This mounting is placed in a chamber of Plexiglas (Emka Technologies), thermostatically-controlled at 37° C., containing 5 ml of physiological solution oxygenated by a gas mixture (95% O2-5% CO2). The thermostatically-controlled enclosure is supplied by a water bath. The mobile hook is suspended with a sensor connected to the interface (electromechanical transducer). This interface is connected on the one hand to an amplifier (amplification of the signal) and on the other hand to a computer (display and analysis of the signal). The IOX 1.565 program enables the processing and display of the signals on the computer screen. The Data Analyst and Prism 3.0 programs allow analysis of the results.
After mounting the aorta rings in the experimental device, these are stretched at a basal tension of 2.5 g. This tension corresponds to the optimum point of their tension/length relationship. Waiting for a stable state in the reference physiological medium is carried out over a period of approximately 1 hour with washing every 20 minutes. Following this equilibration period, the different experiments are carried out.
In order to be free of the relaxation/contraction mechanisms due to the endothelium, certain preparations are made devoid of the latter by mechanical destruction. In order to ensure effective destruction of the endothelium, a cholinergic test (ACh 10^−4 M) is carried out at the end of the first period of equilibration, on preparations pre-contracted by a hyperpotassium solution (80 mM of KCl).
Following this test, the preparations are subjected to several successive washings in order to re-establish a stable state. Once a stable state is reached, the different experiments can be carried out. The contractures due to the hyperpotassium solutions are obtained by the total replacement of the reference physiological solution by the hyperpotassium solution. The administration of the pharmacological substances is carried out in a cumulative fashion and directly in the isolated organ chambers whilst paying attention that the additional volume is not too high. The application of each new concentration only occurs after stabilization. In order to be aware of the reactivity state of the preparation at the end of manipulation, a hyperpotassium or noradrenergic test is carried out. If the preparation reacts in the direction of a contracture, the test is valid.
The composition of the reference physiological solution is a solution of modified Krebs type: NaCl: 120 mM; KCl: 4.7 mM; CaCl2: 2.5 mM; MgCl2: 1.2 mM; NaH2PO4: 1.2 mM; NaHCO3: 15 mM; Hepes: 10 mM; Glucose: 11 mM; pH=7.4. Hyperpotassium solutions containing different concentrations of KCl have been prepared according to the same principle. These solutions are used to provoke a contracture of the aorta ring by depolarisation of the smooth muscle cells. The hyperpotassium solution mainly used in the experiments contains 80 mM of KCl.

Assay [4] relates to aorta rings of Cftr-/- mice. Description: Vasorelaxation of aorta rings contracted by 80 mM K+, Cftr-/- mice. It counts as cell-based, mouse. Conditions: pre-contracted aorta.
Description: as §1, §2, §3

The subject of assay [5] is aorta rings with endothelium pre-contracted by arterenol. As to the kind of experiment: Isolated organ technique: relaxation of rat aorta rings pre-contracted by arterenol. It counts as cell-based. The note with it: 10 μM, arterenol 10^-4 M, after 2 hours 30 minutes.
Description: The experiments are carried out on the thoracic aorta of male rats of Wistar strain weighing 200 to 250 g, 7 to 8 weeks of age. The rat is stunned then placed in the supine position. After thoracotomy, the segment of the aorta comprised between the diaphragm and the right aortic arch is excised. The portion of aorta is immediately placed in a buffered physiological solution of modified Krebs type. The aorta is sectioned into 5 mm rings. The aorta rings, after dissection, are suspended between two hooks one of which is fixed and the other is mobile. […] The thermostatically-controlled enclosure is supplied by a water bath. The mobile hook is suspended with a sensor connected to the interface (electromechanical transducer). This interface is connected on the one hand to an amplifier (amplification of the signal) and on the other hand to a computer (display and analysis of the signal). […] The Data Analyst and Prism 3.0 programs allow analysis of the results. After mounting the aorta rings in the experimental device, these are stretched at a basal tension of 2.5 g. This tension corresponds to the optimum point of their tension/length relationship. Waiting for a stable state in the reference physiological medium is carried out over a period of approximately 1 hour with washing every 20 minutes. Following this equilibration period, the different experiments are carried out. […]
Assay [6] concerns the target T1, CFTR (Homo sapiens, UniProt P13569).
T1 construct: In cells expressing the CFTR protein in an endogenous manner
Conditions: epithelial cells; cited from earlier work.

These results are taken from patent publication US7897610B2, “Use of benzo[c]quinolizinium derivatives for the treatment of diseases that are linked to smooth muscle cell constriction” (Centre National de la Recherche Scientifique, priority 2002, dated 2011).

Where “and” joins values, the source holds several entries; their conditions need not be identical. Identical values can stand only once. Entries after “also recorded” stand apart in the source; their conditions may differ. Like-named read-outs stand apart in the source and are kept apart here.

T1 sequence (P13569 whole entry): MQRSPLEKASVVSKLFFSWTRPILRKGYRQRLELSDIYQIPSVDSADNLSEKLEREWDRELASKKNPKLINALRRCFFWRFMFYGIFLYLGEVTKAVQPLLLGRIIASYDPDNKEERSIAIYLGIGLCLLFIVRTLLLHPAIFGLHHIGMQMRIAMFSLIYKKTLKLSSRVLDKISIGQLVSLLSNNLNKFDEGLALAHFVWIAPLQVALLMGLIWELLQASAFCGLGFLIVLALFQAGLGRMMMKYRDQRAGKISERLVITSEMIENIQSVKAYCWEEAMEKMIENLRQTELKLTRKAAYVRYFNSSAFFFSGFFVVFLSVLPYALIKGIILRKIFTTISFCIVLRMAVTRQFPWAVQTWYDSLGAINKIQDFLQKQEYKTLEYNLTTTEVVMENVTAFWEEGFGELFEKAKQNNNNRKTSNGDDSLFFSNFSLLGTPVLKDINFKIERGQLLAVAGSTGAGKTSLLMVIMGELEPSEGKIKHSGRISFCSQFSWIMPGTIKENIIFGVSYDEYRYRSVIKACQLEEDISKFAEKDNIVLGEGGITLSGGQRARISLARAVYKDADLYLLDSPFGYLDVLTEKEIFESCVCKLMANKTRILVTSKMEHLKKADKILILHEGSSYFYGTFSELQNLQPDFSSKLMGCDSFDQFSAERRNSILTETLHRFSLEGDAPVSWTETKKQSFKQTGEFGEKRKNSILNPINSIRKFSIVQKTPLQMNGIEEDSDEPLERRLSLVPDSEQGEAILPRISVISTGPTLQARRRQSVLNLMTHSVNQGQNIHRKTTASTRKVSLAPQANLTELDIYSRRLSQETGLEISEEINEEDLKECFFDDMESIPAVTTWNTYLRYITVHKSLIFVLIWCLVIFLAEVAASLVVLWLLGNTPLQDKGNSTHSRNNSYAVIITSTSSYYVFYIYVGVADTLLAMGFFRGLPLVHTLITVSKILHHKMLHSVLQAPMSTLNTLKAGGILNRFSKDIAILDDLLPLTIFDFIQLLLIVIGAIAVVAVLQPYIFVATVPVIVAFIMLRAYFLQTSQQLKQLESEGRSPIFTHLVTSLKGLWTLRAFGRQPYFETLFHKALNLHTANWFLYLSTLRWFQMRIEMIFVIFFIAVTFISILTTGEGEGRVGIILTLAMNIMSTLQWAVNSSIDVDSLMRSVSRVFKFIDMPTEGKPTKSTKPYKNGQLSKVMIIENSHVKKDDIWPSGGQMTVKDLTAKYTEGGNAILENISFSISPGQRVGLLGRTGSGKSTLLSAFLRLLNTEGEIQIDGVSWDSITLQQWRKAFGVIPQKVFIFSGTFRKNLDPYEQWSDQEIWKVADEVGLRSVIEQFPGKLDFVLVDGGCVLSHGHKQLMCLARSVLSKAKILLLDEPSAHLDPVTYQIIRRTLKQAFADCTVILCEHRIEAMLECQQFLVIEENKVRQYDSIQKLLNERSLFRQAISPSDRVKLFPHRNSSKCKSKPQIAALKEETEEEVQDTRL

With `Oc1cc2cccc[n+]2c2c(Cl)cccc12.[Cl-]` [MPB-07, 6-hydroxy-10-chlorobenzo[c]quinolizinium chloride], the “effect on pre-contracted aorta” value in assay [1] (Cftr+/+ rat and mouse tissues) is reported as “relaxation of the pre-contracted aorta”. The molecule further displayed an IC50 in assay [1] (Mus musculus, aorta rings contracted by 80 mM K+, n=6) of 37 ± 1.17 µM. The vasorelaxant effect entry in assay [2] was “reversible and slow dose-dependent vasorelaxant effect”. Further, the EC50 in assay [3] (aorta rings with endothelium, 80 mM KCl, n=14, read-out: EC50, relaxation) turned out to be 132.4 ± 0.02 µM; in assay [3] (aorta rings without endothelium, 80 mM KCl, n=7, read-out: EC50, relaxation), 92.9 ± 0.02 µM; in assay [3] (comparison of FIG. 6, read-out: EC50, dose/response curves), 133 µM; in assay [3] (summary statement of results, read-out: EC50, vasorelaxant effect), 134 µM; in assay [3] (with endothelium + L-NAME 10^-4 M, n=8, read-out: EC50, relaxation), 51.8 ± 0.008 µM; in assay [3] (without endothelium + L-NAME, n=7, read-out: EC50, relaxation), 55.1 ± 0.2 µM. The “reversibility of the relaxing effect” value in assay [3] (single dose 135 μM, with endothelium, after washing) is given as “reversible”. Moreover, the relaxation in assay [3] (with endothelium + L-NAME, 40 μM) was 33±6.15%; in assay [3] (with endothelium + L-NAME, 160 μM) it was 98±1.3%; in assay [3] (with endothelium, 80 μM), 24±1.6%; in assay [3] (with endothelium, 160 μM), 64%; in assay [3] (with endothelium, 250 μM), 88%; in assay [3] (with endothelium, 500 μM), 96±1.75% and 100%. The relaxation in assay [3] (without endothelium, 80 μM) came to 37±5.6%; in assay [3] (without endothelium, 250 μM) it was 99±1%; in assay [5] it was 90±9%. In assay [4], the “vasorelaxation in Cftr-/- mice” value was “very considerably reduced; also recorded: absent”. In assay [6], the “activity on the CFTR channel” value is “activators of this ion channel”.

What is called IC50 is the concentration that inhibits the measured activity by half. The low end stands for greater potency, the high end for weaker potency.
